The values that follow are results of earlier work, collected in publication PMC4955970, “Stable, synthetic analogs of diadenosine tetraphosphate inhibit rat and human P2X3 receptors and inflammatory pain” (Molecular Pain, 2016).

This data set concerns P2X3R. Also on record: method as in PMID 11821019. The note with it: EC50 and IC50 values taken from literature ref 41; cited from earlier work.

Regarding `Nc1ncnc2c1ncn2[C@@H]1O[C@H](COP(=O)(O)OP(=O)(O)OP(=O)(O)O)[C@@H](O)[C@H]1O` [ATP], the EC50/IC50 index is listed as 15.13.
Regarding `Nc1ncnc2c1ncn2[C@@H]1O[C@H](COP(=O)(O)OP(=O)(O)OP(=O)(O)OP(=O)(O)OC[C@H]2O[C@@H](n3cnc4c(N)ncnc43)[C@H](O)[C@@H]2O)[C@@H](O)[C@H]1O` [Ap4A, P^1,P^4-diadenosine tetraphosphate], the EC50/IC50 index was 11.48.
